Measurements reported in PubChem BioAssay (NCI).
Values joined by “and” are separate entries in the source; they are usually repeats but may differ in a detail not shown here. Identical values can stand only once.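 All cell lines were grown in 96-well plates and treated with compound for 48 hours. GI50: concentration for 50% inhibition of growth. Definition used: TGI = concentration required for complete inhibition of growth.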

Assays:
Experiment in all cases: growth of human tumour cells (NCI), 48 h
DU-145 prostate = test system: DU-145 prostate
MALME-3M melanoma = test system: MALME-3M melanoma
HS 578T breast = test system: HS 578T breast
BT-549 breast = test system: BT-549 breast
CAKI-1 renal = test system: CAKI-1 renal
PC-3 prostate = test system: PC-3 prostate
A498 renal = test system: A498 renal
NCI/ADR-RES ovarian = test system: NCI/ADR-RES ovarian
SK-OV-3 ovarian = test system: SK-OV-3 ovarian
SF-268 CNS = test system: SF-268 CNS

Compound | GI50 (DU-145 prostate) | TGI (DU-145 prostate) | GI50 (MALME-3M melanoma) | TGI (MALME-3M melanoma) | GI50 (HS 578T breast) | TGI (HS 578T breast) | GI50 (BT-549 breast) | TGI (BT-549 breast) | GI50 (CAKI-1 renal) | TGI (CAKI-1 renal) | GI50 (PC-3 prostate) | TGI (PC-3 prostate) | GI50 (A498 renal) | TGI (A498 renal) | GI50 (NCI/ADR-RES ovarian) | TGI (NCI/ADR-RES ovarian) | GI50 (SK-OV-3 ovarian) | TGI (SK-OV-3 ovarian) | GI50 (SF-268 CNS) | TGI (SF-268 CNS)
FC(F)c1ncc(-c2ccc(C(F)(F)F)cc2)c(NC2CCCCCC2)n1 | > 10 µM | > 10 µM | > 10 µM | > 10 µM | > 10 µM | > 10 µM | > 10 µM | > 10 µM | > 10 µM | > 10 µM | > 10 µM | > 10 µM | > 10 µM | > 10 µM | > 10 µM | > 10 µM | > 10 µM | > 10 µM | > 10 µM | > 10 µM
CC(=O)c1c[nH]c2ccc(-c3ccnc(Nc4ccc(NC(=O)C5CCCC5)c(CN5CCOCC5)c4)n3)cc12 | 0.0362 µM | 2.38 µM | 0.0431 µM | 0.151 µM | 0.0207 µM | 0.105 µM | 0.0328 µM | 0.904 µM | 0.0168 µM | 0.561 µM | 0.0325 µM | 1.05 µM | 0.0204 µM | 0.0558 µM | 0.306 µM | 2.96 µM | 0.0454 µM | > 100 µM | 0.033 µM | 0.159 µM
CN1CCN(CCCOc2ccc3nc(Nc4ccc(F)c(F)c4)ccc3c2)CC1 | 3.07 µM | 11.5 µM | 1.15 µM | 3.06 µM | 1.82 µM | 5.43 µM | 2.34 µM | 9.86 µM | 1.67 µM | 3.95 µM | 1.72 µM | 3.72 µM | 1.26 µM | 4.03 µM | 3.4 µM | 14.7 µM | 2.59 µM | 6.9 µM | 2.45 µM | 8.31 µM
CC12CCC(=O)C(O1)C1C(=O)c3ccc4c(ccc5ccccc54)c3C(=O)C12 (centres undefined) | 2.73 µM | 6.49 µM | 0.945 µM | 4.4 µM | 9.77 µM | > 26.1 µM | 6.69 µM | 13.2 µM | 1.82 µM | 6.63 µM | 4.36 µM | 10.7 µM | 3.08 µM | 5.83 µM | 5.43 µM | 12.6 µM | 11.5 µM | > 39.1 µM | 15.3 µM | 36.1 µM
Cc1nc(NS(=O)(=O)c2ccc(NCN3C(=O)c4ccccc4C3=O)cc2)oc1C | > 100 µM | > 100 µM | > 100 µM | > 100 µM | > 100 µM | > 100 µM | > 100 µM | > 100 µM | > 100 µM | > 100 µM | > 100 µM | > 100 µM | > 100 µM | > 100 µM | > 100 µM | > 100 µM | > 100 µM | > 100 µM | > 100 µM | > 100 µM
COC(=O)CC1(O)C=CC(=O)C=C1 |  | 18.6 µM |  | 6.9 µM |  | 39.4 µM |  | 18.1 µM |  | 11.6 µM |  | 6.35 µM |  | 15.9 µM |  | 32.4 µM |  | 29.6 µM |  | 14.8 µM
COc1cc(C2c3cc4c(cc3OC(O)C2C)OCO4)cc(OC)c1OC (centres undefined) |  | > 100 µM |  | 73.2 µM |  | > 100 µM |  | > 59.2 µM |  | 37.4 µM |  | > 100 µM |  | 50.2 µM |  | 0.504 µM |  | 23.3 µM |  | > 58.9 µM
CC(C)(C)c1ccc(C2CC(=O)C3=C(C2)Nc2ccccc2N(C(=O)c2ccccc2Cl)C3c2ccc(F)cc2)cc1 (centres undefined) | > 100 µM | > 100 µM | > 100 µM | > 100 µM | > 100 µM | > 100 µM | > 100 µM | > 100 µM | > 100 µM | > 100 µM | 7.01 µM | > 100 µM | 1.3 µM | > 100 µM | > 100 µM | > 100 µM | > 100 µM | > 100 µM | > 100 µM | > 100 µM
C=C(C)[C@@H]1CCc2c(O)c(O)c(=O)cc(C)c2C1 |  | > 100 µM |  | 35 µM |  | > 100 µM |  | > 100 µM |  | 10.9 µM |  | > 100 µM |  | > 62.3 µM |  | 25.8 µM |  | > 100 µM |  | > 100 µM
Cc1c(Nc2nccc3cc(CN4CC[C@@H](O)C4)cnc23)cccc1-c1cccc(-c2nc3cc(CN4CC[C@@H](C(=O)O)C4)cc(C#N)c3o2)c1C | > 100 µM | > 100 µM | 4.35 µM | 23.2 µM | 15.1 µM | > 100 µM | 1.75 µM | 8.68 µM | > 100 µM | > 100 µM | 4.17 µM | > 100 µM | > 100 µM | > 100 µM | 14.8 µM | > 100 µM | > 100 µM | > 100 µM | 10.9 µM | > 100 µM
O=C1OCC2=C1C(c1cccc(C(F)(F)F)c1)c1cc3c(cc1N2CCO)OCCO3 (centres undefined) | 1.54 µM | > 33.3 µM | 2.86 µM | > 33.3 µM | 0.915 µM | > 33.3 µM | 1.81 µM | > 33.3 µM | 1.15 µM | > 33.3 µM | 1.24 µM | > 33.3 µM | 0.866 µM | 3.25 µM | 1.11 µM | > 33.3 µM | 1.29 µM | > 33.3 µM | 2.54 µM | > 33.3 µM
Cc1nn(C)c2ncnc(N/N=C/c3cccc(O)c3O)c12 | 0.558 µM | > 100 µM | 0.52 µM | 4.7 µM | 2.29 µM | > 100 µM | 0.602 µM | > 100 µM | 1.31 µM | 16.5 µM | 0.545 µM | > 100 µM | 2.97 µM | 16.3 µM | 0.336 µM | > 55.8 µM | 2.24 µM | > 81 µM | 0.342 µM | 20.4 µM
CCC[CH2][Sn]([CH2]CCC)([CH2]CCC)/[C](=C/[Si](C)(C)c1ccccc1)c1ccc2c(c1)OCO2 | 21.7 µM | 48.6 µM | 3.2 µM | 15 µM | 42.6 µM | > 100 µM | 19.1 µM | 44.3 µM | 16 µM | 48.2 µM | 31.4 µM | > 100 µM | 30.5 µM | 70.6 µM | 26.2 µM | 86.3 µM | 18.5 µM | 41 µM | 10.7 µM | 98.4 µM
COc1cc(S(=O)(=O)Nc2nc(-c3ccc(N4C(=O)C(C)SC4c4ccccc4O)cc3)cs2)ccc1Cl (centres undefined) | 42.5 µM | > 100 µM | 89.2 µM | > 100 µM | 43.1 µM | > 100 µM | 32 µM | > 100 µM | 67.7 µM | > 100 µM | 30.1 µM | > 100 µM | 51.3 µM | > 100 µM | 50.9 µM | > 100 µM | 50.6 µM | > 100 µM | 41.4 µM | > 100 µM
Cc1ccc(S(=O)(=O)n2cc([C@@]3(O)C[C@H](CSC#N)OC3=O)c3ccccc32)cc1 | 4.39 µM | 15.3 µM | 12.1 µM | 35.2 µM | 8.7 µM | 32.6 µM | 16.9 µM | 33.1 µM | 0.0836 µM | 25.8 µM | 17.8 µM | 50.4 µM | 14.7 µM | 46.5 µM | 13.5 µM | 38.8 µM | 58.8 µM | > 100 µM | 5.1 µM | 19.7 µM
CN(C)CCN1C(=O)c2cccc3c(/C=C/CN4C(=O)c5cccc6cccc(c56)C4=O)ccc(c23)C1=O | > 100 µM | > 100 µM | 4.06 µM | 30.5 µM | 13.8 µM | 35.7 µM | 43.5 µM | > 100 µM | 13.4 µM | 28.6 µM | > 100 µM | > 100 µM | 34.1 µM | > 100 µM | > 100 µM | > 100 µM | > 100 µM | > 100 µM | 51.5 µM | > 100 µM
NC1=NC(SCc2ccccc2CCl)c2ncn(Cc3ccccc3CCl)c2N1 (centres undefined) | 1.35 µM | 2.7 µM | 1.44 µM | 3.2 µM | 3.51 µM | > 100 µM | 1.7 µM | 3.35 µM | 1.77 µM | 3.82 µM | 1.79 µM | 3.52 µM | 8.51 µM | 25.3 µM | 1.81 µM | 4.3 µM | 3.87 µM | 13.9 µM | 2.01 µM | 10.2 µM
COc1cc(/C=C/C(=O)CC(=O)/C=C/c2cc(OC)c(O)c(OC)c2)cc(OC)c1O | 20.7 µM | 24.8 µM and > 100 µM | 14.8 µM | 25 µM and 30.6 µM | 5.73 µM | 18 µM and 53.8 µM | 13.4 µM | 25 µM and 34.4 µM | 21.1 µM | 25 µM and > 100 µM |  | 25 µM and 37.8 µM | 15.6 µM | 12.2 µM and 37.5 µM | > 100 µM | > 100 µM | 32 µM | 24 µM and > 100 µM | 9.06 µM | 15.4 µM and 41.2 µM
COc1ccc(CSC2=C(C#N)C(=O)NC3(CCCCC3)S2)cc1 |  | > 100 µM |  | > 100 µM |  | > 75.8 µM |  | > 100 µM |  | > 100 µM |  | > 100 µM |  | > 100 µM |  | > 100 µM |  | > 100 µM |  | > 87.4 µM
